The text below walks through data of US11306078B2, “Piperidine CXCR7 receptor modulators” (IDORSIA PHARMACEUTICALS LTD., priority 2016, dated 2022).

human chemokine receptor CXCR7, sequence (P25106 whole entry): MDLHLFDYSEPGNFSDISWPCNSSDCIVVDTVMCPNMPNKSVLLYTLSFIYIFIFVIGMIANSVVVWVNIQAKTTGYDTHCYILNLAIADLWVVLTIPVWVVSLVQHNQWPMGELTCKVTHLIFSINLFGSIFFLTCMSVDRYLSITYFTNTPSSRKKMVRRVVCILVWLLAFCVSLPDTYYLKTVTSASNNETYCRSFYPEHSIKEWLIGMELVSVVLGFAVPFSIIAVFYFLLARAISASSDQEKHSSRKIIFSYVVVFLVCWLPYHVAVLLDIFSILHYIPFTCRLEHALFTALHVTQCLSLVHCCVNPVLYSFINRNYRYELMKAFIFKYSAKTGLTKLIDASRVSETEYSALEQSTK

One test has as its target human chemokine receptor CXCR7 (Homo sapiens (Human), UniProt P25106). The test is described as follows: Tango CXCR7-bla U2OS beta-arrestin recruitment assay (beta-lactamase reporter, FRET), antagonism of CXCL12/SDF1-α.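 Note: compounds preincubated 15 min before CXCL12 addition, then 22 h at 37 °C, FRET emission ratio read with CCF4-AM substrate after 2 h.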 The class given is cell-based. Particulars: antagonistic effect on CXCR7; Tango CXCR7-bla U2OS cells, CXCL12/SDF1-α at its EC80. For orientation: Arrestin recruitment assays detect the binding of arrestin to an activated receptor.
With `C[C@@H](NC(=O)[C@@H]1CN(CC2CC2)CC[C@H]1NC(=O)c1cc(-c2c(F)cc(F)cc2F)on1)c1cnccn1` (relative stereo) [Example 1.131, (3R*,4R*)-1-Cyclopropylmethyl-4-{[5-(2,4,6-trifluoro-phenyl)-isoxazole-3-carbonyl]-amino}-piperidine-3-carboxylic acid ((R)-1-pyrazin-2-yl-ethyl)-amide], half-maximal inhibition (IC50) was put at 102 nM.

On to `C[C@@H](NC(=O)[C@H]1CN(CC2CC2)CC[C@@H]1NC(=O)c1cc(-c2ccc(F)cc2F)on1)c1cccnc1` [Example 4.024], for which the midpoint of inhibition, the IC50, lay at 56 nM.

`O=C(N[C@H]1CCN(C2CC3(CC3)C2)C[C@@H]1C(=O)NC1(c2ncccn2)CC1)c1cc(-c2ccc(F)cc2F)on1` [Example 2.103]: 4 nM corresponded to half-maximal inhibition (IC50).

For the compound `CC(NC(=O)[C@@H]1CN(CC2CC2)CC[C@H]1NC(=O)c1cc(-c2ccc(F)cc2F)on1)c1cccc[n+]1[O-]` (stereo partly drawn) [Example 2.011], 114 nM corresponded to half-maximal inhibition (IC50).

For the compound `O=C(N[C@H]1CCN(CC2CC2)C[C@@H]1C(=O)NC1(c2ncccn2)CC1)c1cc(-c2ccc(F)cc2F)sn1` [Example 7.015, (3S,4S)-1-Cyclopropylmethyl-4-{[5-(2,4-difluoro-phenyl)-isothiazole-3-carbonyl]-amino}-piperidine-3-carboxylic acid (1-pyrimidin-2-yl-cyclopropyl)-amide], inhibition was half-maximal at 201 nM (IC50).

`COc1ccccc1CCNC(=O)[C@@H]1CN(C2CCCCC2)CC[C@H]1NC(=O)c1cc(-c2ccc(F)cc2F)on1` (racemic) [Example 1.057, rac-(3R*,4R*)-1-Cyclohexyl-4-{[5-(2,4-difluoro-phenyl)-isoxazole-3-carbonyl]-amino}-piperidine-3-carboxylic acid [2-(2-methoxy-phenyl)-ethyl]-amide]: 1 nM corresponded to half-maximal inhibition (IC50).

On to `CN(CCc1ccccn1)C(=O)[C@@H]1CN(CC2CC2)CC[C@H]1NC(=O)c1cc(-c2ccc(F)cc2F)on1` [Example 2.079], for which the half-maximal inhibitory concentration (IC50) (usually the point on the concentration scale where inhibition reaches its midpoint) amounted to 38 nM.

On to `COCC(C)(C)NC(=O)[C@@H]1CN(C2CCCC2)CC[C@H]1NC(=O)c1cn(-c2ccc(F)cc2F)nn1` (racemic) [Example 1.109, rac-(3R*,4R*)-1-Cyclopentyl-4-{[1-(2,4-difluoro-phenyl)-1H-[1,2,3]triazole-4-carbonyl]-amino}-piperidine-3-carboxylic acid (2-methoxy-1,1-dimethyl-ethyl)-amide], for which the 50% inhibitory concentration (IC50) is 902 nM. Against the preceding compound, the IC50 is about 24-fold higher.

In the case of `CC1(NC(=O)[C@H]2CN(C3CCCCC3)CC[C@@H]2NC(=O)c2cc(-c3ccc(F)cc3F)on2)CC1` [Example 4.001, (3S,4S)-1-Cyclohexyl-4-{[5-(2,4-difluoro-phenyl)-isoxazole-3-carbonyl]-amino}-piperidine-3-carboxylic Acid (1-methyl-cyclopropyl)-amide], half-maximal inhibition (IC50) was put at 133 nM.

With `O=C(N[C@@H]1CCN(C2CCCCC2)C[C@H]1C(=O)NCCc1ccc(F)cc1)c1cc(-c2ccc(F)cc2F)on1` (racemic) [Example 1.059, rac-(3R*,4R*)-1-Cyclohexyl-4-{[5-(2,4-difluoro-phenyl)-isoxazole-3-carbonyl]-amino}-piperidine-3-carboxylic acid [2-(4-fluoro-phenyl)-ethyl]-amide], half-maximal inhibition (IC50) was put at 140 nM.

In turn, `Cc1ccccc1-c1cc(C(=O)N[C@H]2CCN(CC3CC3)C[C@@H]2C(=O)NC2(c3ncccn3)CC2)no1` [Example 7.002, (3S,4S)-1-Cyclopropylmethyl-4-[(5-o-tolyl-isoxazole-3-carbonyl)-amino]-piperidine-3-carboxylic acid (1-pyrimidin-2-yl-cyclopropyl)-amide] registered an IC50 of 308 nM.

On to `O=C(N[C@@H]1CCN(C2CCC2)C[C@H]1C(=O)NC1(c2ccc(F)cc2)COC1)c1cc(-c2ccc(F)cc2F)on1` [Example 4.089], for which the half-inhibitory concentration (IC50) was determined as 299 nM.

`O=C(N[C@H]1CCN(C2CCCC2)C[C@@H]1C(=O)NC1(c2ccncc2)CC1)c1cc(-c2ccc(F)cc2F)on1` [Example 4.026] had a concentration for half-maximal inhibition (IC50) of 15 nM.

`O=C(N[C@@H]1CCN(C2CCCC2)C[C@H]1C(=O)NC1(c2cccc[n+]2[O-])CC1)c1cc(-c2ccc(F)cc2F)on1` [Example 2.062a]: the concentration for half-maximal inhibition (IC50) worked out at 298 nM.

In the case of `NC(=O)CNC(=O)[C@@H]1CN(C2CCCCC2)CC[C@H]1NC(=O)c1cc(-c2ccc(F)cc2F)on1` (racemic) [Example 1.014, rac-(3R*,4R*)-1-Cyclohexyl-4-{[5-(2,4-difluoro-phenyl)-isoxazole-3-carbonyl]-amino}-piperidine-3-carboxylic acid carbamoylmethyl-amide], the IC50 was found to be 289 nM.

`COCC(C)(C)NC(=O)[C@@H]1CN(CC2CC2)CC[C@H]1NC(=O)c1cc(-c2c(F)cc(F)cc2F)on1` (single isomer, unassigned) [Example 1.113b, (3R*,4R*)-1-Cyclopropylmethyl-4-{[5-(2,4,6-trifluoro-phenyl)-isoxazole-3-carbonyl]-amino}-piperidine-3-carboxylic acid (2-methoxy-1,1-dimethyl-ethyl)-amide] returned an IC50 of 48 nM.

In turn, `CN(C)C(=O)[C@@H]1CN(C2CCCC23CC3)CC[C@H]1NC(=O)c1cc(-c2ccc(F)cc2F)on1` (stereo partly drawn) [Example 2.047] came in with a half-maximal inhibitory concentration (IC50) of 145 nM.

`CN(C)C(=O)[C@@H]1CN(C2CCCCC2)CC[C@H]1NC(=O)c1cc(-c2ccc(Cl)cc2F)on1` (racemic) [Example 3.006, rac-(3R*,4R*)-4-{[5-(4-Chloro-2-fluoro-phenyl)-isoxazole-3-carbonyl]-amino}-1-cyclohexyl-piperidine-3-carboxylic acid dimethylamide] came in with an IC50 of 108 nM.

`C[C@@H](NC(=O)[C@@H]1CN(C2CCCC2)CC[C@H]1NC(=O)c1cc(-c2c(F)cc(F)cc2F)on1)c1ccccn1` (single isomer, unassigned) [Example 1.122a, (3R*,4R*)-1-Cyclopentyl-4-{[5-(2,4,6-trifluoro-phenyl)-isoxazole-3-carbonyl]-amino}-piperidine-3-carboxylic acid ((R)-1-pyridin-2-yl-ethyl)-amide] showed a concentration for half-maximal inhibition (IC50) of 525 nM. This IC50 is about 4.9-fold higher than that of the compound before.

In the case of `Cc1cc(CNC(=O)[C@@H]2CN(C3CCCCC3)CC[C@H]2NC(=O)c2cc(-c3ccc(F)cc3F)on2)n(C)n1` (racemic) [Example 1.054, rac-(3R*,4R*)-1-Cyclohexyl-4-{[5-(2,4-difluoro-phenyl)-isoxazole-3-carbonyl]-amino}-piperidine-3-carboxylic acid (2,5-dimethyl-2H-pyrazol-3-ylmethyl)-amide], 311 nM corresponded to half-maximal inhibition (IC50).

For `CC(NC(=O)[C@@H]1CN(C2CCCC2)CC[C@H]1NC(=O)c1cc(-c2ccc(F)cc2F)on1)c1ccccn1` (stereo partly drawn) [Example 2.009], the half-maximal inhibitory concentration (IC50) stood at 10 nM.

As for `O=C(N[C@@H]1CCN(C2CCCCC2)C[C@H]1C(=O)Nc1cccnc1)c1cc(-c2ccc(F)cc2F)on1` (racemic) [Example 1.067, rac-(3R*,4R*)-1-Cyclohexyl-4-{[5-(2,4-difluoro-phenyl)-isoxazole-3-carbonyl]-amino}-piperidine-3-carboxylic acid pyridin-3-ylamide], the concentration for half-maximal inhibition (IC50) came out at 319 nM. Compared with the last compound, the IC50 is about 32-fold higher.

As to `Cn1ccc(CNC(=O)[C@@H]2CN(C3CCCCC3)CC[C@H]2NC(=O)c2cc(-c3ccc(F)cc3F)on2)n1` (racemic) [Example 1.042, rac-(3R*,4R*)-1-Cyclohexyl-4-{[5-(2,4-difluoro-phenyl)-isoxazole-3-carbonyl]-amino}-piperidine-3-carboxylic acid (1-methyl-1H-pyrazol-3-ylmetyl)-amide], the half-inhibitory concentration (IC50) was 532 nM.

Compound `C[C@@H](NC(=O)[C@@H]1CN(C2CCCCC2)CC[C@H]1NC(=O)c1cn(-c2ccc(F)cc2F)nn1)c1ccccn1` (relative stereo) [Example 1.117, (3R*,4R*)-1-Cyclohexyl-4-{[1-(2,4-difluoro-phenyl)-1H-[1,2,3]triazole-4-carbonyl]-amino}-piperidine-3-carboxylic acid ((R)-1-pyridin-2-yl-ethyl)-amide] returned a half-maximal inhibitory concentration (IC50) of 68 nM. This IC50 is about 7.8-fold lower than that of the compound before.

Turning to `CN(C)C(=O)[C@@H]1CN(C2CCC2(C)C)CC[C@H]1NC(=O)c1cc(-c2ccc(F)cc2F)on1` (stereo partly drawn) [Example 2.017], the half-inhibitory concentration (IC50) turned out to be 73 nM. The IC50 values of the last two compounds are within 1.5-fold of each other.

For the compound `O=C(N[C@@H]1CCN(CC2CC2)C[C@H]1C(=O)NC1(c2ccccn2)CC1)c1cc(-c2c(F)cc(F)cc2F)on1` (single isomer, unassigned) [Example 1.171a, (3R*,4R*)-1-Cyclopropylmethyl-4-{[5-(2,4,6-trifluoro-phenyl)-isoxazole-3-carbonyl]-amino}-piperidine-3-carboxylic acid (1-pyridin-2-yl-cyclopropyl)-amide], it took 7 nM to reach half-maximal inhibition (IC50). Against the preceding compound, the IC50 is about 10-fold lower.

Take `O=C(N[C@@H]1CCN(C2CCCCC2)C[C@H]1C(=O)NC1(c2ccccn2)CC1)c1cc(-c2ccccc2F)on1` (racemic) [Example 3.009, rac-(3R*,4R*)-1-Cyclohexyl-4-{[5-(2-fluoro-phenyl)-isoxazole-3-carbonyl]amino}-piperidine-3-carboxylic acid (1-pyridin-2-yl-cyclopropyl)-amide]: it took 286 nM to reach half-maximal inhibition (IC50).

The compound `C[C@@H](NC(=O)[C@H]1CN(C2CCCCC2)CC[C@@H]1NC(=O)c1cc(-c2ccc(F)cc2F)on1)C1CCC1` [Example 4.014] yielded an IC50 of 363 nM.

`C[C@@H]1CCC[C@H]1N1CC[C@@H](NC(=O)c2cc(-c3c(F)cc(F)cc3F)on2)[C@H](C(=O)N[C@H](C)c2ccccn2)C1` (relative stereo) [Example 1.124, (3R*,4R*)-1-((1RS,2RS)-2-Methyl-cyclopentyl)-4-{[5-(2,4,6-trifluoro-phenyl)-isoxazole-3-carbonyl]-amino}-piperidine-3-carboxylic acid ((R)-1-pyridin-2-yl-ethyl)-amide] registered an IC50 of 16 nM. This IC50 is about 23-fold lower than that of the compound before.

Still in this test, the particulars now being: antagonistic effect on CXCR7; Tango CXCR7-bla U2OS cells; CXCL12/SDF1-α at its EC80; geometric mean.
Take `O=C(N[C@@H]1CCN(CC2CC2)C[C@H]1C(=O)NC1(c2ncccn2)CC1)c1cc(C2CC2)on1` (single isomer, unassigned) [Reference Compound 1b, (3R,4R)-4-[(5-Cyclopropyl-isoxazole-3-carbonyl)-amino]-1-cyclopropylmethyl-piperidine-3-carboxylic acid (1-pyrimidin-2-yl-cyclopropyl)-amide or (3S,4S)-4-[(5-cyclopropyl-isoxazole-3-carbonyl)-amino]-1-cyclopropylmethyl-piperidine-3-carboxylic Acid (1-pyrimidin-2-yl-cyclopropyl)-amide, reference compound]: the half-maximal inhibitory concentration (IC50) was greater than 10000 nM.
